Results: EP3685668B1, “COMPOSITION COMPRISING ACIBENZOLAR-S-METHYL AS EFFECTIVE INGREDIENT FOR CONTROLLING BURSAPHELENCHUS XYLOPHILUS DISEASE AND METHOD FOR CONTROLLING BURSAPHELENCHUS XYLOPHILUS USING SAME” (Industry Foundation of Chonnam National University, priority 2017, dated 2019)

Columns and labels:
Assay in all cases: qRT-PCR expression of induced resistance gene in pine tree callus
Assay type in all cases: cell-based
PR_2 family = settings: for Expression of induced resistance gene, PR_2 family: 24 hours
Description: (§1) For in vitro analysis of induced resistance, the expression of PR genes and other plant defense-related genes was determined, which are evolved in various defense mechanisms including induced resistance. The primers of sixteen induced resistance-related genes of pine tree used in this invention were listed in the below and elongation factor_1 alpha were used as a reference gene. [Table 4] The primer list of defense resistance-related genes
(§2) After the treatment with 200 µg / mℓ of candidates of the selected induced resistance material, expression of the induced resistance-related gene in pine callus was determined by qRT-PCR using the primer pairs of defense resistance-related genes in Table 4. As a candidate group of an induced resistance material in pine tree, acibenzolar-S-methyl (ASM), TDL (Tiadinil), ITL (Isotianil), PBZ (Probenzole), AZO (Azoxystrobin), VMA (Validamycin A), MeJA (Methyl jasmonate), BABA (DL-3-aminobutyric acid), 2,3-BDO (2,3-Butanediol), GABA (r-Aminobutyric acid), glucan (Glucan), ER (Ergosterol), and AZA (Azelaic acid) were used. For the in vitro analysis of the expression of induced resistance gene in pine callus, the selected induced resistance materials were applied with 500 µℓ of LM liquid medium on a surface of pine tree callus (100 mg) in 12-well microplate to give final concentration of 200 µg/mℓ. Then, the callus surface was sufficiently reacted for 24 hours with the candidate of pine tree induced resistance material by shaking at 50 rpm in a 25 °C shaking incubator under dark condition. RNAs were extracted from the callus after completion of the reaction with an induced resistance material, followed by synthesis of cDNAs. Then, by carrying out qRT-PCR, the expression of induced resistance genes was determined. [Table 5] Expression of induced resistance gene in pine tree callus by TDL, PBZ, ASM, ITL, AZO, VMA, glucan, and AZA
(§3) Based on the results of assay using young plants and gene expression by selected induce resistance materials, it seemed that acibenzolar-S-methyl had the most excellent effect. Thus, the following tests were carried out using acibenzolar-S-methyl only. Expression of the induced resistance genes at different culture time after the chemical treatment was examined. For the in vitro assay, LM medium containing pine tree callus was treated with acibenzolar-S-methyl at concentration of 200 µg / mℓ, followed by reaction for 1 day, 7 days, or 14 days in a 25°C shaking incubator under dark condition. RNAs were extracted from the callus after the reaction followed by synthesis of cDNAs. Then, by carrying out qRT-PCR, the expression of the induced resistance genes was determined. Depending on reaction time after the treatment, i.e., after 1 day, 7 days, or 14 days, the expression of the obtained induced resistance genes was examined. As a result of the in vitro callus assay depending on reaction time after the treatment with acibenzolar-S-methyl, the expression of the induced resistance-related genes is the highest at 1 day after the treatment with acibenzolar-S-methyl and gradually diminished over time, as it is shown in Table 7. In this regard, it is contemplated that the expression of genes acquired by acibenzolar-S-methyl is not maintained in highly expressed state until the pathogen invasion and just memorized with at minimum level so that the energy consumption by plant can be efficiently managed. [Table 7] Expression of induced resistance gene in pine tree callus by acibenzolar-S-methyl depending on reaction time
(§4) To have an in vitro assay according to different methods of treatment with acibenzolar-S-methyl, two separate treatment methods, i.e., surface treatment (spraying treatment) of pine tree callus and direct application of the induced resistance material to an LM medium containing pine tree callus, were performed. […]

PR_3 family class 1 = settings: for Expression of induced resistance gene, PR_3 family class 1: 24 hours
Description: as §1, §2, §3, §4

PR_3 family class 4 = settings: for Expression of induced resistance gene, PR_3 family class 4: 24 hours
Description: as §1, §2, §3, §4

PR_4 family = settings: for Expression of induced resistance gene, PR_4 family: 24 hours
Description: as §1, §2, §3, §4

PR_5 family = settings: for Expression of induced resistance gene, PR_5 family: 24 hours
Description: as §1, §2, §3, §4

PR_9 family = settings: for Expression of induced resistance gene, PR_9 family: 24 hours
Description: as §1, §2, §3, §4

Xyloglucan = settings: 200 µg/mℓ; for Expression of induced resistance gene, Xyloglucan: 24 hours
Description: as §1, §2, §3, §4

[1] = 200 µg/mℓ, Direct supplying as a medium component
[2] = concentration series, 200 µg/mℓ

`CSC(=O)c1cccc2nnsc12` [ASM, acibenzolar-S-methyl] was tested, and the “Expression of induced resistance gene, PR_2 family” value (PR_2 family; 200 µg/mℓ) was 1.65, the “Expression of induced resistance gene, PR_2 family” value (PR_2 family; [1]) was 5.5 and the “Expression of induced resistance gene, PR_2 family” value (PR_2 family; 200 µg/mℓ, Spraying) was 1.65. The “Gene expression level, PR_2 family” value (PR_2 family; 200 µg/mℓ, After 1 day) was 5.5, the “Gene expression level, PR_2 family” value (PR_2 family; 200 µg/mℓ, After 7 days) was 0.97 and the “Gene expression level, PR_2 family” value (PR_2 family; 200 µg/mℓ, After 14 days) was 0.42. For the same molecule, the “Gene expression level, PR_2 family” value (PR_2 family; concentration series, 20 µg/mℓ) was 2.694, the “Gene expression level, PR_2 family” value (PR_2 family; [2]) was 1.117 and the “Expression of induced resistance gene, PR_3 family class 1” value (PR_3 family class 1; 200 µg/mℓ) was 2.04. For the same molecule, the “Expression of induced resistance gene, PR_3 family class 1” value (PR_3 family class 1; [1]) was 2.85, the “Expression of induced resistance gene, PR_3 family class 1” value (PR_3 family class 1; 200 µg/mℓ, Spraying) was 2.04 and the “Gene expression level, PR_3 family class 1” value (PR_3 family class 1; 200 µg/mℓ, After 1 day) was 2.85. For the same molecule, the “Gene expression level, PR_3 family class 1” value (PR_3 family class 1; 200 µg/mℓ, After 7 days) was 1.38, the “Gene expression level, PR_3 family class 1” value (PR_3 family class 1; 200 µg/mℓ, After 14 days) was 0.29 and the “Gene expression level, PR_3 family class 1” value (PR_3 family class 1; concentration series, 20 µg/mℓ) was 3.506. For the same molecule, the “Gene expression level, PR_3 family class 1” value (PR_3 family class 1; [2]) was 3.605, the “Expression of induced resistance gene, PR_3 family class 4” value (PR_3 family class 4; 200 µg/mℓ) was 3.86 and the “Expression of induced resistance gene, PR_3 family class 4” value (PR_3 family class 4; [1]) was 11.96. The “Expression of induced resistance gene, PR_3 family class 4” value (PR_3 family class 4; 200 µg/mℓ, Spraying) was 3.86, the “Gene expression level, PR_3 family class 4” value (PR_3 family class 4; 200 µg/mℓ, After 1 day) was 11.96 and the “Gene expression level, PR_3 family class 4” value (PR_3 family class 4; 200 µg/mℓ, After 7 days) was 7.67. The “Gene expression level, PR_3 family class 4” value (PR_3 family class 4; 200 µg/mℓ, After 14 days) was 0.86, the “Gene expression level, PR_3 family class 4” value (PR_3 family class 4; concentration series, 2 µg/mℓ) was 32.22 and the “Gene expression level, PR_3 family class 4” value (PR_3 family class 4; concentration series, 20 µg/mℓ) was 42.52. The “Gene expression level, PR_3 family class 4” value (PR_3 family class 4; [2]) was 24.93, the “Expression of induced resistance gene, PR_4 family” value (PR_4 family; 200 µg/mℓ) was 2.6 and the “Expression of induced resistance gene, PR_4 family” value (PR_4 family; [1]) was 5.46. The “Expression of induced resistance gene, PR_4 family” value (PR_4 family; 200 µg/mℓ, Spraying) was 2.6, the “Gene expression level, PR_4 family” value (PR_4 family; 200 µg/mℓ, After 1 day) was 5.46 and the “Gene expression level, PR_4 family” value (PR_4 family; 200 µg/mℓ, After 7 days) was 0.74. The “Gene expression level, PR_4 family” value (PR_4 family; 200 µg/mℓ, After 14 days) was 0.2, the “Gene expression level, PR_4 family” value (PR_4 family; concentration series, 2 µg/mℓ) was 2.25 and the “Gene expression level, PR_4 family” value (PR_4 family; concentration series, 20 µg/mℓ) was 2.056. The “Gene expression level, PR_4 family” value (PR_4 family; [2]) was 1.24, the “Expression of induced resistance gene, PR_5 family” value (PR_5 family; 200 µg/mℓ) was 2.93 and the “Expression of induced resistance gene, PR_5 family” value (PR_5 family; [1]) was 5.9. For the same molecule, the “Expression of induced resistance gene, PR_5 family” value (PR_5 family; 200 µg/mℓ, Spraying) was 2.93, the “Gene expression level, PR_5 family” value (PR_5 family; 200 µg/mℓ, After 1 day) was 5.9 and the “Gene expression level, PR_5 family” value (PR_5 family; 200 µg/mℓ, After 7 days) was 0.45. The “Gene expression level, PR_5 family” value (PR_5 family; 200 µg/mℓ, After 14 days) was 0.17, the “Gene expression level, PR_5 family” value (PR_5 family; concentration series, 2 µg/mℓ) was 4 and the “Gene expression level, PR_5 family” value (PR_5 family; concentration series, 20 µg/mℓ) was 8.515. For the same molecule, the “Gene expression level, PR_5 family” value (PR_5 family; [2]) was 2.809, the “Expression of induced resistance gene, PR_9 family” value (PR_9 family; 200 µg/mℓ) was 2 and the “Expression of induced resistance gene, PR_9 family” value (PR_9 family; [1]) was 8.57. The “Expression of induced resistance gene, PR_9 family” value (PR_9 family; 200 µg/mℓ, Spraying) was 2, the “Gene expression level, PR_9 family” value (PR_9 family; 200 µg/mℓ, After 1 day) was 1 and the “Gene expression level, PR_9 family” value (PR_9 family; 200 µg/mℓ, After 7 days) was 1. For the same molecule, the “Gene expression level, PR_9 family” value (PR_9 family; 200 µg/mℓ, After 14 days) was 1, the “Gene expression level, PR_9 family” value (PR_9 family; concentration series, 2 µg/mℓ) was 0.7526 and the “Gene expression level, PR_9 family” value (PR_9 family; concentration series, 20 µg/mℓ) was 0.79. For the same molecule, the “Gene expression level, PR_9 family” value (PR_9 family; [2]) was 0.9526, the “Expression of induced resistance gene, Xyloglucan” value (Xyloglucan) was 2.36 and the “Expression of induced resistance gene, Xyloglucan” value (Xyloglucan; Direct supplying as a medium component) was 17.51. For the same molecule, the “Expression of induced resistance gene, Xyloglucan” value (Xyloglucan; Spraying) was 2.36, the “Gene expression level, Xyloglucan” value (Xyloglucan; After 1 day) was 29.86 and the “Gene expression level, Xyloglucan” value (Xyloglucan; After 7 days) was 2.81. For the same molecule, the “Gene expression level, Xyloglucan” value (Xyloglucan; After 14 days) was 1.06 and the “Gene expression level, Xyloglucan” value (Xyloglucan; concentration series) was 37.01.
